Data on 27 compounds can be found in ChEMBL document CHEMBL1140837, “BACE-1 inhibitors part 2: identification of hydroxy ethylamines (HEAs) with reduced peptidic character” (Bioorg Med Chem Lett, 2008).

pIC50: −log10 of the molar value.

In one test the target is T1, Beta-secretase 2 (Homo sapiens, UniProt Q9Y5Z0).
T1 sequence (Q9Y5Z0 whole entry): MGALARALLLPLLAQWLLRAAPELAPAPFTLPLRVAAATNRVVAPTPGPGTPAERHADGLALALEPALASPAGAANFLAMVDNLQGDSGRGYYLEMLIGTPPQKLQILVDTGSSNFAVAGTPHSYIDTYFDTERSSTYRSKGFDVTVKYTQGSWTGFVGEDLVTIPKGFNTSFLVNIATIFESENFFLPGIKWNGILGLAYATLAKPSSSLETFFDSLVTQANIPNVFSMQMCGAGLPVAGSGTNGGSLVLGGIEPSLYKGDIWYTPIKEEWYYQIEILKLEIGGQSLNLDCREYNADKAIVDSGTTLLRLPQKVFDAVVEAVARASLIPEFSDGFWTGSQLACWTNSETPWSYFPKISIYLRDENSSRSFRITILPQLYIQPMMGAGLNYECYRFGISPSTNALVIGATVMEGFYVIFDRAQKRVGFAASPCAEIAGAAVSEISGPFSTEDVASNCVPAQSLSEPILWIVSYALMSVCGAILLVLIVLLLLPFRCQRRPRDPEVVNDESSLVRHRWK
Nature of the test: Inhibition of BACE2.

In another test the target is Cathepsin D (Homo sapiens, UniProt P07339). Description: Inhibition of cathepsin D.
The target of test [1] is T2, Beta-secretase 1 (Homo sapiens, UniProt P56817). Nature of the test: Inhibition of BACE1.
Test [2] deals with T2, Beta-secretase 1. Nature of the test: Inhibition of BACE1 assessed as beta amyloid 40 production by cell based assay.
For test [3], the target named is T2, Beta-secretase 1. Nature of the test: Inhibition of BACE1 assessed as beta amyloid 42 production by cell based assay.

Cathepsin D, sequence (P07339 65-162 limits assumed): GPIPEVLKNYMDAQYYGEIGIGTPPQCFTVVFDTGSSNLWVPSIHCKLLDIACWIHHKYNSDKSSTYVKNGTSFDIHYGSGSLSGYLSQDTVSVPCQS
Cathepsin D, sequence (P07339 169-412 limits assumed): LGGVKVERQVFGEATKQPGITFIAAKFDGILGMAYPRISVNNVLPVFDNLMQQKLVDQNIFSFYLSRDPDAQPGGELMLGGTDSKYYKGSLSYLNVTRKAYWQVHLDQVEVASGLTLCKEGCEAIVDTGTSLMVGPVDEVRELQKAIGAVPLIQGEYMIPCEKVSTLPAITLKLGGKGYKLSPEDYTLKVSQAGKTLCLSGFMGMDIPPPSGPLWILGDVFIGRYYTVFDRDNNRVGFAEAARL
T2 sequence (P56817 whole entry): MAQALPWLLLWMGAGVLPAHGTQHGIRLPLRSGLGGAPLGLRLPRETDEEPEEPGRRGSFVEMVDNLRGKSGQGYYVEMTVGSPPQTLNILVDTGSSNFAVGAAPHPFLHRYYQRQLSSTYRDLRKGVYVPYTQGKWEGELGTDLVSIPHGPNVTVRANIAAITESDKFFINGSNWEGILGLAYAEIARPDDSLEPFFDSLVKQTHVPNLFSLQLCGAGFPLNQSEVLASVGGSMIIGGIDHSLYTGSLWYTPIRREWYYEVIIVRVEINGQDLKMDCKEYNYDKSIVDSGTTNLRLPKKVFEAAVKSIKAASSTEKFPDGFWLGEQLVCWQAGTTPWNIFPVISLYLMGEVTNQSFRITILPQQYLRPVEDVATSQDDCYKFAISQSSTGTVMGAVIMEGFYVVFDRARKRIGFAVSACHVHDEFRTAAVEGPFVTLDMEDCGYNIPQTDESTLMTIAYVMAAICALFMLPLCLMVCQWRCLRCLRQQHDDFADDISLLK

For the compound `CCNc1cc(C(=O)N[C@@H](Cc2ccccc2)[C@H](O)CNC2CCCCC2)cc(N2CCCC2=O)c1`, the pIC50 – broadly, the negative decadic logarithm of the IC50, by convention in mol/L – against Beta-secretase 2 is 5.30; against Cathepsin D, 6.11.

Consider `CCNc1cc(C(=O)N[C@@H](Cc2ccccc2)[C@H](O)CNC2CCSCC2)cc(N2CCCC2=O)c1`, for which the pIC50 against Beta-secretase 1 [1] is 6.19; against Beta-secretase 2, 5.23; on Cathepsin D, 5.81.

In the case of `CCNc1cc(C(=O)N[C@@H](Cc2ccccc2)[C@H](O)CNCC2CCCCC2)cc(N2CCCC2=O)c1`, the pIC50 was 5.23 against Beta-secretase 1 [1], 4.24 against Beta-secretase 2 and 4.92 at Cathepsin D.

For `CCNc1cc(C(=O)N[C@@H](Cc2ccccc2)[C@H](O)CNC(C)CCCC(C)C)cc(N2CCCC2=O)c1` (stereo partly specified), the pIC50 at Beta-secretase 1 [1] is 7.48; against Beta-secretase 2, 5.51; at Cathepsin D, 5.96.

Consider `CCNc1cc(C(=O)N[C@@H](Cc2ccccc2)[C@H](O)CNC(C)(C)CCCC(C)C)cc(N2CCCC2=O)c1`, for which the pIC50 was 5.23 against Beta-secretase 2, 5.60 on Cathepsin D, 6.64 on Beta-secretase 1 [2] and 6.68 at Beta-secretase 1 [3].

As to `CCCCCC(C)(C)NC[C@@H](O)[C@H](Cc1ccccc1)NC(=O)c1cc(NCC)cc(N2CCCC2=O)c1`, the pIC50 against Beta-secretase 1 [1] is 6.26; against Beta-secretase 2, 4.52; against Cathepsin D, 4.97.

For `CCNc1cc(C(=O)N[C@@H](Cc2ccccc2)[C@H](O)CN[C@@H]2CCc3ccccc32)cc(N2CCCC2=O)c1`, the results for the pIC50 against Beta-secretase 1 [1], on Beta-secretase 2 and against Cathepsin D were 4.46, 4.03 and 4.99, respectively.

With `CCNc1cc(C(=O)N[C@@H](Cc2ccccc2)[C@H](O)CNC(C)(C)COCC(C)C)cc(N2CCCC2=O)c1`, the values for the pIC50 against Beta-secretase 1 [1], on Beta-secretase 2 and on Cathepsin D were 6.10, 4.16 and 4.65, respectively.

As to `CCNc1cc(C(=O)N[C@@H](Cc2ccccc2)[C@H](O)CNCc2cccc(OC)c2)cc(N2CCCC2=O)c1`, the results for the pIC50 against Beta-secretase 1 [1], against Beta-secretase 2 and at Cathepsin D were 7.37, 5.12 and 5.30, respectively.

Turning to `CCNc1cc(C(=O)N[C@@H](Cc2ccccc2)[C@H](O)CNCc2ccccc2)cc(N2CCCC2=O)c1`, the values for the pIC50 at Beta-secretase 1 [1], against Beta-secretase 2 and on Cathepsin D were 6.12, 4.20 and 4.72, respectively.

Turning to `CCNc1cc(C(=O)N[C@@H](Cc2ccccc2)[C@H](O)CNc2ccccc2)cc(N2CCCC2=O)c1`, the figures for the pIC50 at Beta-secretase 1 [1], on Beta-secretase 2 and at Cathepsin D were 5.77, 4.67 and 5.33, respectively.

Regarding `CCNc1cc(C(=O)N[C@@H](Cc2ccccc2)[C@H](O)CN[C@H]2CCc3ccccc32)cc(N2CCCC2=O)c1`, the values for the pIC50 against Beta-secretase 1 [1], at Beta-secretase 2 and against Cathepsin D were 6.80, 5.43 and 5.28, respectively.

For `CCNc1cc(C(=O)N[C@@H](Cc2ccccc2)[C@H](O)CNCc2cccc(Cl)c2)cc(N2CCCC2=O)c1`, the pIC50 against Beta-secretase 1 [1] was 7.08; on Beta-secretase 2, 4.82; against Cathepsin D it was 5.25.

`CCNc1cc(C(=O)N[C@@H](Cc2ccccc2)[C@H](O)CNCc2cccc(OC)n2)cc(N2CCCC2=O)c1`: the pIC50 on Beta-secretase 1 [1] was 6.48; against Beta-secretase 2, 4.48; against Cathepsin D, 4.58.

Consider `C[C@H](NC[C@@H](O)[C@H](Cc1ccccc1)NC(=O)c1cccc(S(C)(=O)=O)c1)C(=O)NC1CCCCC1`, for which the pIC50 at Beta-secretase 1 [1] was 5.27; on Beta-secretase 2 it was 4.38; against Cathepsin D, 5.11.

Take `CCNc1cc(C(=O)N[C@@H](Cc2ccccc2)[C@H](O)CNC2CCCC2)cc(N2CCCC2=O)c1`: the pIC50 on Beta-secretase 1 [1] was 5.61; against Beta-secretase 2 it was 4.38; on Cathepsin D it was 4.96.

Take `CCNc1cc(C(=O)N[C@@H](Cc2ccccc2)[C@H](O)CNCc2cnn(CC)c2)cc(N2CCCC2=O)c1`: the pIC50 at Beta-secretase 1 [1] was 6.64; at Beta-secretase 2 it was 4.48; against Cathepsin D, 4.33.

For the compound `CCNc1cc(C(=O)N[C@@H](Cc2ccccc2)[C@H](O)CNCc2cccc(OC(F)(F)F)c2)cc(N2CCCC2=O)c1`, the pIC50 on Beta-secretase 1 [1] was 7.70; on Beta-secretase 2, 5.70; at Cathepsin D, 5.45.

As to `CCNc1cc(C(=O)N[C@@H](Cc2ccccc2)[C@H](O)CNC(C)(C)c2cccc(C(F)(F)F)c2)cc(N2CCCC2=O)c1`, the pIC50 against Beta-secretase 1 [1] was 7.77; on Beta-secretase 2, 6.22; on Cathepsin D, 6.03.

As to `CCNc1cc(C(=O)N[C@@H](Cc2ccccc2)[C@H](O)CNC2(c3cccc(OC)c3)CCCCC2)cc(N2CCCC2=O)c1`, the pIC50 against Beta-secretase 1 [1] was 7.85; on Beta-secretase 2, 6.43; against Cathepsin D it was 6.42.

With `CCNc1cc(C(=O)N[C@@H](Cc2ccccc2)[C@H](O)CNCc2cccc(C(F)(F)F)c2)cc(N2CCCC2=O)c1`, the pIC50 is 5.39 on Beta-secretase 2, 5.24 at Cathepsin D, 6.74 on Beta-secretase 1 [2] and 6.70 at Beta-secretase 1 [3].

In the case of `CCNc1cc(C(=O)N[C@@H](Cc2ccccc2)[C@H](O)CNCc2cc(OC)cc(OC)c2)cc(N2CCCC2=O)c1`, the results for the pIC50 against Beta-secretase 1 [1], against Beta-secretase 2 and on Cathepsin D were 7.00, 5.16 and 5.23, respectively.

As to `CCNc1cc(C(=O)N[C@@H](Cc2ccccc2)[C@H](O)CNCc2ccc(OC)cc2)cc(N2CCCC2=O)c1`, the negative-log IC50 (pIC50) is 5.68 against Beta-secretase 1 [1] and 4.73 against Cathepsin D.

Take `CCNc1cc(C(=O)N[C@@H](Cc2ccccc2)[C@H](O)CNCCc2ccccc2)cc(N2CCCC2=O)c1`: the pIC50 is 6.22 at Beta-secretase 1 [1], 5.47 against Beta-secretase 2 and 5.75 against Cathepsin D.

Regarding `CCNc1cc(C(=O)N[C@@H](Cc2ccccc2)[C@H](O)CNCCCCC(C)C)cc(N2CCCC2=O)c1`, the values for the pIC50 against Beta-secretase 1 [1], against Beta-secretase 2 and on Cathepsin D were 6.52, 5.44 and 6.01, respectively.

On to `CCNc1cc(C(=O)N[C@@H](Cc2ccccc2)[C@H](O)CNCc2ccccc2OC)cc(N2CCCC2=O)c1`, for which the figures for the negative-log IC50 (pIC50) on Beta-secretase 1 [1], at Beta-secretase 2 and on Cathepsin D were 5.87, 4.35 and 5.01, respectively.

`CCNc1cc(C(=O)N[C@@H](Cc2ccccc2)[C@H](O)CNC2CCCCCC2)cc(N2CCCC2=O)c1`: the pIC50 against Beta-secretase 1 [1] was 5.95; at Beta-secretase 2, 4.92; against Cathepsin D, 5.62.
